Values of other authors in patent US11813301B2, “Topical composition with active compounds from Cannabis sativa and Calendula officinalis for reduction of skin lesions” (UAB Satimed, priority 2016, dated 2023).

Test system: keratinocyte proliferation
Details: cannabinoid receptor-independent manner

SMILES | inhibition of keratinocyte proliferation
CCCCCc1cc(O)c2c(c1)OC(C)(C)c1ccc(C)cc1-2 [CBN, Cannabinol] | low micromolar range
C=C(C)[C@@H]1CCC(C)=C[C@H]1c1c(O)cc(CCCCC)cc1O [CBD, Cannabidiol] | low micromolar range
CCCCCc1cc(O)c2c(c1)OC(C)(C)[C@@H]1CCC(C)=C[C@@H]21 [Preparation D9-THC, Δ9-tetrahydrocannabinol] | low micromolar range
